Tests used:
MUC5AC [1] = assay: LPS-stimulated MUC5AC mRNA transcription, dose response; assay type: cell-based; details: Homo sapiens, normalized to glyceraldehyde phosphate 3-dehydrogenase, read-out: inhibition of MUC5AC gene transcription IC50
Procedure: (§1) An in vitro assay was established to screen retinoid-based compounds for their effects on LPS-induced mucin gene expression using a continuous human lung epithelial cell line, NIH-292. NIH-292 cells were cultured in standard T-75 tissue culture flasks in DMEM/F12 media containing 10% fetal bovine serum (FBS). Upon confluence the media was changed to defined medium Optimem (Sigma) supplemented with 1% FBS 24 hours prior to challenge with 10 μg/ml LPS (P. aeriginos, Sigma Chemical). RAR selective antagonist, Compound Z, was added 24 hours prior to LPS challenge. ATRA and specific retinoids were prepared as DMSO stocks. Cells were harvested 6 or 24 hours after LPS challenge using a guanidinium-basedbuffer (TRIZOL/Sigma) for RNA extraction and analysis. Amplification of β-actin, MUC1, MUC2 and MUC5AC specific RNA was performed by using an automated fluorescent detection method for quantitation of real time RT-PCR (TAQMAN, Applied Biosystems/Perkin Elmer). Standard curves were generated for each of the relevant mucin RNAs using control plasmid. Analysis was performed in triplicate from duplicate samples.
Cells were stimulated with LPS in the presence or absence of Ia. MUC5AC specific mRNA was measured and is graphed normalized relative to glyceraldehyde phosphate 3-dehydrogenase control.

[2] = tested on: primary human bronchial epithelium; assay: Mucin protein secretion from NHBE cells, ELISA; assay type: cell-based; details: for mucin secretion: 1×10^-7 M, FIG. 1(b)
Procedure: (§2) Transactivation of mucin genes in normal primary human bronchial epithelial cells (NHBE) was performed as described by Gray et al. Am. J. Respir. Biol., 14:104-112 (1996). Primary human airway epithelial cells were cultured on porous Transwell membranes (Corning/Costar) in defined media in the absence of all-trans retinoic acid (ATRA) for 7 days. After seven days, fresh media±ATRA or selective retinoid, was added to the basal culture compartment to create an air-liquid interface (ALI). ATRA and/or selective retinoids were used at a concentration or 1×10^-7 M. The selective retinoids used were: Compound X (RARα selective agonist), RXR agonist (SRI 11217) and anti-AP1 retinoid (SRI 11302). After seven additional days of culture the media was harvested for analysis of secreted mucin gene product using specific ELISA as previously described (Gray et al). The cell layer was lysed using a guanidinium-based buffer (TRIZOL/Sigma) for RNA extraction and analysis. Amplification of MUC2 and MUC5AC RNA was performed by standard RT-PCR using appropriate selective primer and mimics pairs (Guzman et al., Am. J. Physiol. 271 (Lung Cell Mol Physiol.15): L1023-L1028 (1996) and PCR products were detected in ethedium bromide stained agarose gels.
Corresponding mucin protein secretion data are shown in FIG. 1(b) as ELISA data representing results from separate samples run in triplicate. Data presented as mean±sem. The mucin protein secretion data were consistent with gene induction results.
(§3) Transactivation of mucin genes in NHBE was performed as described above. On days 7 through day 14 cells were cultured with 1×10^-6 M RARα antagonist, Compound Z, alone or in combination with 1×10^-7 M ATRA or RARα selective agonist, Compound X. The effects on mucin gene transactivation and expression were determined by RT-PCR and ELISA as described above. RARα selective antagonist, Compound Z, had no effect on MUC2 or MUC5AC gene expression.

[3] = tested on: LPS-induced mucous hypersecretion in mice; assay: Mucous hypersecretion in mouse model of LPS-induced lung inflammation; assay type: in vivo; details: 10 mg/kg daily starting 72 hours prior to LPS challenge
Procedure: All-trans retinoic acid (ATRA) was evaluated for its effects on mucous hypersecretion in the rat model of endotoxin/lipopolysacharide (LPS)-induced lung inflammation (Steiger et al. J. Am. Respir. Cell Mol. Biol., 12:307-314 (1995)). Animals were divided into treatment groups of approximately six. Lung inflammation was induced in male Long Evans rats by repeated instillation of LPS (LPS derived from Pseudomonas aeriginos; Sigma Chemical) 400 μg/Kg/dose/day for three days. ATRA was dissolved in DMSO (20 mg/ml) and stored at -20 C. Fresh working stocks were prepared fresh daily by dilution in PBS to a final concentration of 2 mg/ml. Animals treated with ATRA (2 mg/kg ip) were dosed once daily by intraperitoneal injection, starting 24 hours prior to the first LPS challenge. […]
The lungs were lavaged with phosphate buffered saline (2×5 ml) to wash out mucous layer. The lavage fluid (BAL) was centrifuged for 10 min at 500×g and the cell-free supernate was frozen and stored -20° C. until analyzed for secreted mucin by Alcian-blue/PAS dot blot assay to determine relative contribution of neutral and acidic mucins. […]
The effect of RARα selective antagonists Ia and Ib on mucous hypersecretion in the rat and mouse models of LPS-induced lung inflammation was evaluated according to the procedure of Example 4. […]

[4] = tested on: mucin gene expression in human epithelial cells; assay: Mucin gene expression (MUC2 and MUC5AC) in human epithelial cells; assay type: cell-based
Procedure: as §2, §3

MUC5AC [5] = assay: MUC5AC gene transactivation in NHBE cells, RT-PCR; assay type: cell-based, human; details: for MUC5AC gene expression, compound alone: Example 3, antagonist 1×10^-6 M or agonist 1×10^-7 M; for Induction of MUC5AC: even at the highest dose, 1×10^-6 M; for MUC5AC gene induction: 1×10^-7 M, Example 1
Procedure: as §2
(§4) Transactivation of mucin genes in NHBE was performed as described above with the exception that media was supplemented with RAR alpha (RARα), beta (RARβ), or gamma (RARγ)-selective retinoids on days 7 through day 14. The RAR alpha (RARα), beta (RARβ), or gamma (RARγ)-selective retinoids were compounds X, Y and CD-437 respectively.
as §3

[6] = tested on: LPS-induced mucin hypersecretion in rats; assay: Mucous hypersecretion in rat model of LPS-induced lung inflammation; assay type: in vivo; details: for mucous hypersecretion in rats: 10 mg/kg daily starting 72 hours prior to LPS challenge
Procedure: (§5) All-trans retinoic acid (ATRA) was evaluated for its effects on mucous hypersecretion in the rat model of endotoxin/lipopolysacharide (LPS)-induced lung inflammation (Steiger et al. J. Am. Respir. Cell Mol. Biol., 12:307-314 (1995)). Animals were divided into treatment groups of approximately six. Lung inflammation was induced in male Long Evans rats by repeated instillation of LPS (LPS derived from Pseudomonas aeriginos; Sigma Chemical) 400 μg/Kg/dose/day for three days. ATRA was dissolved in DMSO (20 mg/ml) and stored at -20 C. Fresh working stocks were prepared fresh daily by dilution in PBS to a final concentration of 2 mg/ml. Animals treated with ATRA (2 mg/kg ip) were dosed once daily by intraperitoneal injection, starting 24 hours prior to the first LPS challenge. Two control groups were included in the study, treatment with vehicle (DMSO/PBS) followed by LPS and treatment with ATRA alone. Animals were sacrificed 24 hours after the last LPS challenge by exsanguination under deep anesthesia.
The lungs were lavaged with phosphate buffered saline (2×5 ml) to wash out mucous layer. The lavage fluid (BAL) was centrifuged for 10 min at 500×g and the cell-free supernate was frozen and stored -20° C. until analyzed for secreted mucin by Alcian-blue/PAS dot blot assay to determine relative contribution of neutral and acidic mucins. Standard curves were generated using bovine intestinal mucins (Sigma) TYPE 1 (Alc. blue/acidic mucins) and TYPE II (PAS+/neutral mucin). Each sample was assayed in triplicate and data presented as […] total mucin. (FIG. 4b)
The effect of RARα selective antagonists Ia and Ib on mucous hypersecretion in the rat and mouse models of LPS-induced lung inflammation was evaluated according to the procedure of Example 4. Animals were treated with compound (10 mg/kg) or vehicle daily starting 72 hours prior to LPS challenge.

MUC2 [7] = assay: MUC2 gene transactivation in NHBE cells, RT-PCR; assay type: cell-based, human; details: for MUC2 gene expression, compound alone: Example 3, antagonist 1×10^-6 M or agonist 1×10^-7 M; for Induction of MUC2: even at the highest dose, 1×10^-6 M; for MUC2 gene induction: 1×10^-7 M, Example 1
Procedure: as §2, §4, §3

NIH-292 cells = assay: LPS-induced mucin gene expression in NIH-292 cells, real time RT-PCR; assay type: cell-based, human; details: added 24 hours prior to 10 μg/ml LPS
Procedure: as §1

MUC2 [8] = details: G. An, et al.; cited from earlier work
RXR receptors = details: cited from earlier work
[9] = tested on: RAR subtypes (α, β, and γ); details: cited from earlier work
[10] = tested on: goblet cell hyperplasia in rats; assay: LPS-induced goblet cell hyperplasia, morphometric analysis; assay type: in vivo, rat; details: ATRA 2 mg/kg ip once daily
Procedure: as §5
After lavage the lungs were perfused with 10% neutral buffered formalin by intratracheal instillation at a constant rate (5 ml at 1 ml/min). The left lobe was excised and immersed in fixative for 24 hours prior to processing. Standard methods were used to prepare 5 μm paraffin sections. […]

[11] = 1×10^-6 M antagonist with 1×10^-7 M ATRA or Compound X

CCCCCCCOc1cc2c(cc1/C(C)=C/c1ccc(C(=O)O)cc1)C(C)(C)CCS2(=O)=O [Compound Ia]
IC50 (MUC5AC [1]): < 10 nM | inhibition of ATRA- or Compound X-induced mucin protein secretion ([2]; 1×10^-6 M antagonist with 1×10^-7 M ATRA or Compound X, FIG. 3b): completely inhibited | mucous hypersecretion in mice [3]: reduced the amount of mucous hypersecretion relative to vehicle | inhibition of retinoid induced mucin gene expression [4]: inhibited | inhibition of ATRA- or Compound X-induced MUC5AC (MUC5AC [5]; [11]): completely inhibited | MUC5AC gene expression, compound alone (MUC5AC [5]): no effect | mucous hypersecretion in rats [6]: reduced the amount of mucous hypersecretion relative to vehicle | inhibition of ATRA- or Compound X-induced MUC2 (MUC2 [7]; [11]): completely inhibited | MUC2 gene expression, compound alone (MUC2 [7]): no effect | LPS induced mucin gene expression (NIH-292 cells): inhibit LPS induced mucin gene expression

CCCCCCCOc1cc2c(cc1/C(C)=C/C=C/C(C)=C/C(=O)O)C(C)(C)CCS2(=O)=O [Compound Ib]
mucous hypersecretion in mice [3]: reduced the amount of mucous hypersecretion relative to vehicle | inhibition of retinoid induced mucin gene expression [4]: inhibited | mucous hypersecretion in rats [6]: reduced the amount of mucous hypersecretion relative to vehicle

CC1=C(/C=C/C(C)=C/C=C/C(C)=C/CO)C(C)(C)CCC1 [retinol]
expression of the MUC2 gene (MUC2 [8]): down-regulated

CC1=C(/C=C/C(C)=C\C=C\C(C)=C\C(=O)O)C(C)(C)CCC1 [9-cis isomer of retinoic acid]
binding to RXR receptors (RXR receptors): bind instead to the 9-cis isomer of retinoic acid

O=C(O)c1ccc2cc(-c3ccc(O)c(C45CC6CC(CC(C6)C4)C5)c3)ccc2c1 [CD-437, 6-[3-(1-adamantyl)-4-hydroxyphenyl]-2-naphthalenecarboxylic acid]
Induction of MUC5AC (MUC5AC [5]; Example 2): minimal | Induction of MUC2 (MUC2 [7]; Example 2): minimal

CC(C)=C(c1ccc(C(=O)O)cc1)c1ccc2c(c1)C(C)(C)CCC2(C)C [SRI 11217, 4-[1-(5,6,7,8-tetrahydro-5,5,8,8,-tetramethyl-2-naphthalenyl)-2-methylpropenyl]-benzoic acid]
MUC5AC gene induction (MUC5AC [5]): no effect on induction of either gene | MUC2 gene induction (MUC2 [7]): no effect on induction of either gene

CC1=C(/C=C/C(C)=C/C=C/C(C)=C/C(=O)O)C(C)(C)CCC1 [ATRA, All-trans retinoic acid]
binding to the three RAR subtypes [9]: binds with approximately equal affinity to all the three RAR subtypes | LPS-induced goblet cell hyperplasia [10]: enhancement | mucin secretion [2]: increase in mucin secretion | binding to RXR receptors (RXR receptors): do not bind to all-trans retinoic acid | mucin gene expression, specifically MUC2 and MUC5AC ([4]; retinoid agonists): transactivates mucin gene expression | MUC5AC gene induction (MUC5AC [5]): induce both MUC2 and MUC5AC gene induction | MUC5AC gene expression, compound alone (MUC5AC [5]): potent inducers | LPS-induced mucin hypersecretion in rats ([6]; ATRA 2 mg/kg ip once daily): enhancement | MUC2 gene induction (MUC2 [7]): induce both MUC2 and MUC5AC gene induction | MUC2 gene expression, compound alone (MUC2 [7]): potent inducers

CC1(C)CCC(C)(C)c2cc(C(=O)Nc3ccc(C(=O)O)cc3)ccc21 [Compound X]
mucin secretion [2]: increase in mucin secretion | MUC5AC gene induction (MUC5AC [5]): induce both MUC2 and MUC5AC gene induction | MUC5AC gene activation (MUC5AC [5]; 1×10^-9 M, Example 2): most potent inducer | MUC5AC gene expression, compound alone (MUC5AC [5]): potent inducers | Induction of MUC5AC (MUC5AC [5]; Example 2): minimal | MUC2 gene induction (MUC2 [7]): induce both MUC2 and MUC5AC gene induction | MUC2 gene activation (MUC2 [7]; 1×10^-9 M, Example 2): most potent inducer | MUC2 gene expression, compound alone (MUC2 [7]): potent inducers | Induction of MUC2 (MUC2 [7]; Example 2): minimal

Source: US6083973A, “Methods for inhibiting mucin secretion using RAR α selective antagonists” (Syntex (U.S.A.) Inc., priority 1999, dated 2000)
